Data on 24 molecules can be found in US9216957B2, “Androgen receptor antagonists and uses thereof” (SUZHOU KINTOR PHARMACEUTICALS, INC., priority 2011, dated 2015).

Molecules are shown by their SMILES.

The first assay has as its system Prostate-specific antigen (PSA) production in LNCaP cells. Put plainly: PSA Assay (inhibition of PSA production in prostate cancer cells, ELISA). The assay is classed as cell-based, human. Conditions: Homo sapiens, LNCaP, 72 h, read-out: LNCAP IC50 (uM), inhibition of PSA production, LNCaP cells, R1881 1 ng/ml, three days, seven point assay. As for the experimental part: PSA Assay (Inhibition Test of the Compound of the Present Invention on Prostate-Specific Antigen (PSA) Production in Various Prostate Cancer Cells).
Androgen dependent LNCaP cells were purchased from the American Type Culture Collection (ATCC, Manassas, Va.). These cells were grown in RPMI 1640 medium supplemented with 10% fetal bovine serum (FBS), 100 U/mL penicillin, 100 μg/mL streptomycin, and 0.25 μg/mL amphotericin B. The cells were maintained at 37° C. and 5% CO2. LNCaP cells between passage 20 and 35 were used for experiments. LNCaP is a hormone sensitive cell line. For the PSA assay, human prostate cancer cells LNCaP were seeded in a 96-well plate at a concentration of 5000 cells/100 μl/well. On the following day, Methyltrienolone (R1881, AR agonist) (final concentration 1 ng/ml), test compounds or bicalutamide (Casodex®, AstraZeneca) (final concentration 0.005 to 20 μM) were added. Three days after the addition, the concentration of PSA in the supernatant of the culture solution was measured by ELISA. ELISAs for human PSA in culture medium were performed using the ultra-sensitive assay procedure and reagents in the Active™ PSA assay kit (Diagnostic Systems Laboratories Inc., Webster, Tex.). Culture medium and standards (200 μl/well) were incubated in antibody-coated plates for 2 h at room temperature on a Titer plate shaker at 500-600 rpm. Wells were then washed five times. The HRP conjugate was diluted 1:20 with assay buffer, and 100 μl was added to all wells. The plates were incubated for 30 min at room temperature on the shaker and washed as before, and 100 μl TMB (3,3′,5,5′-tetramethylbenzidine, 0.4 g/l) was added. The plates were incubated for 10 min on the shaker, and the reaction was terminated with 100 μl stop solution. The plates were read using a plate reader at 450 nm with a 650 nm reference filter. PSA levels were normalized for differences in growth of LNCaP cells following various treatments as determined by the MTS assay. IC50 of PSA was calculated based on a seven point assay (concentrations of tested compound) and expressed as micromolar (uM).
Consider `CC1(C)C(=O)N(c2ccc(C#N)c(Cl)c2F)C(=S)N1c1ccc(CCCC#N)nc1` [Example 37, 2-chloro-4-(3-(6-(3-cyanopropyl)pyridin-3-yl)-4,4-dimethyl-5-oxo-2-thioxoimidazolidin-1-yl)-3-fluorobenzonitrile], for which the IC50 was 0.65 µM.

With `CC1(C)C(=O)N(c2ccc(C#N)c(C(F)(F)F)c2)C(=S)N1c1ccc(CCCC#N)nc1` [Example 38, 4-(3-(6-(3-cyanopropyl)pyridin-3-yl)-4,4-dimethyl-5-oxo-2-thioxoimidazolidin-1-yl)-2-(trifluoromethyl)benzonitrile], the IC50 was determined as 0.52 µM.

Regarding `COc1c(C#N)ccc(N2C(=O)C(C)(C)N(c3ccc(CCCC#N)nc3)C2=S)c1F` [Example 39, 4-(3-(6-(3-cyanopropyl)pyridin-3-yl)-4,4-dimethyl-5-oxo-2-thioxoimidazolidin-1-yl)-3-fluoro-2-methoxybenzonitrile], the IC50 was 0.75 µM.

Take `CC1(C)C(=O)N(c2ccc(C#N)c(C(F)(F)F)c2F)C(=S)N1c1ccc(CCCC#N)cc1` [Example 40, 4-(3-(4-(3-cyanopropyl)phenyl)-4,4-dimethyl-5-oxo-2-thioxoimidazolidin-1-yl)-3-fluoro-2-(trifluoromethyl)benzonitrile]: the IC50 was determined as 0.3 µM.

For `CC1(C)C(=O)N(c2ccc(C#N)c(Cl)c2F)C(=S)N1c1ccc(CCCC#N)cc1` [Example 41, 2-chloro-4-(3-(4-(3-cyanopropyl)phenyl)-4,4-dimethyl-5-oxo-2-thioxoimidazolidin-1-yl)-3-fluorobenzonitrile], the IC50 was 0.32 µM.

For `N#CCCCc1ccc(N2C(=S)N(c3ccc(C#N)c(C(F)(F)F)c3F)C(=O)C23CCC3)cc1` [Example 42, 4-(5-(4-(3-cyanopropyl)phenyl)-8-oxo-6-thioxo-5,7-diazaspiro[3.4]octan-7-yl)-3-fluoro-2-(trifluoromethyl)benzonitrile], the IC50 turned out to be 0.85 µM.

Take `N#CCCCc1ccc(N2C(=S)N(c3ccc(C#N)c(Cl)c3F)C(=O)C23CCC3)cc1` [Example 43, 2-chloro-4-(5-(4-(3-cyanopropyl)phenyl)-8-oxo-6-thioxo-5,7-diazaspiro[3.4]octan-7-yl)-3-fluorobenzonitrile]: the IC50 turned out to be 0.59 µM.

Consider `CNC(=O)CCCc1ccc(N2C(=S)N(c3ccc(C#N)c(C(F)(F)F)c3F)C(=O)C2(C)C)cc1F` [Example 44, 4-{4-[3-(4-Cyano-2-fluoro-3-trifluoromethyl-phenyl)-5,5-dimethyl-4-oxo-2-thioxo-imidazolidin-1-yl]-2-fluoro-phenyl}-N-methyl-butyramide], for which the IC50 came to 0.11 µM.

Consider `CNC(=O)CCCc1ccc(N2C(=S)N(c3cc(C(F)(F)F)c(C#N)cc3F)C(=O)C2(C)C)cc1F` [Example 45, 4-(4-(3-(4-cyano-2-fluoro-5-(trifluoromethyl)phenyl)-5,5-dimethyl-4-oxo-2-thioxoimidazolidin-1-yl)-2-fluorophenyl)-N-methylbutanamide], for which the IC50 stood at 2.05 µM.

Consider `CNC(=O)CCCc1ccc(N2C(=S)N(c3ccc(C#N)c(C(F)(F)F)c3F)C(=O)C23CCC3)cc1F` [Example 46, 4-{4-[7-(4-Cyano-2-fluoro-3-trifluoromethyl-phenyl)-8-oxo-6-thioxo-5,7-diaza-spiro[3.4]oct-5-yl]-2-fluoro-phenyl}-N-methyl-butyramide], for which the IC50 stood at 0.63 µM.

As for `CC1(C)C(=O)N(c2ccc(C#N)c(C(F)(F)F)c2F)C(=S)N1c1ccc(CCCC(=O)N2CC(O)C2)c(F)c1` [Example 47, 3-Fluoro-4-(3-{3-fluoro-4-[4-(3-hydroxy-azetidin-1-yl)-4-oxo-butyl]-phenyl}-4,4-dimethyl-5-oxo-2-thioxo-imidazolidin-1-yl)-2-trifluoromethyl-benzonitrile], the IC50 was found to be 0.48 µM.

Consider `CC1(C)C(=O)N(c2ccc(C#N)c(C(F)(F)F)c2)C(=S)N1c1ccc(CCCC(=O)N2CC(O)C2)c(F)c1` [Example 48, 4-(3-{3-Fluoro-4-[4-(3-hydroxy-azetidin-1-yl)-4-oxo-butyl]-phenyl}-4,4-dimethyl-5-oxo-2-thioxo-imidazolidin-1-yl)-2-trifluoromethyl-benzonitrile], for which the IC50 is 1.04 µM.

On to `CC1(C)C(=O)N(c2ccc(C#N)c(C(F)(F)F)c2F)C(=S)N1c1ccc(CCCc2ncco2)c(F)c1` [Example 49, 3-Fluoro-4-{3-[3-fluoro-4-(3-oxazol-2-yl-propyl)-phenyl]-4,4-dimethyl-5-oxo-2-thioxo-imidazolidin-1-yl}-2-trifluoromethyl-benzonitrile], for which the IC50 stood at 0.49 µM.

`CC1(C)C(=O)N(c2ccc(C#N)c(C(F)(F)F)c2F)C(=S)N1c1ccc(CCCC(=O)N2CCC(O)CC2)c(F)c1` [Example 51, 3-Fluoro-4-(3-{3-fluoro-4-[4-(4-hydroxy-piperidin-1-yl)-4-oxo-butyl]-phenyl}-4,4-dimethyl-5-oxo-2-thioxo-imidazolidin-1-yl)-2-trifluoromethyl-benzonitrile]: the IC50 is 0.39 µM.

As to `CN1CCN(C(=O)CCCc2ccc(N3C(=S)N(c4ccc(C#N)c(C(F)(F)F)c4F)C(=O)C3(C)C)cc2F)CC1` [Example 53, 3-Fluoro-4-(3-{3-fluoro-4-[4-(4-methyl-piperazin-1-yl)-4-oxo-butyl]-phenyl}-4,4-dimethyl-5-oxo-2-thioxo-imidazolidin-1-yl)-2-trifluoromethyl-benzonitrile], the IC50 stood at 0.41 µM.

As to `CC1(C)C(=O)N(c2ccc(C#N)c(C(F)(F)F)c2F)C(=S)N1c1ccc(CCCC(=O)N2CCOCC2)nc1` [Example 55, 4-{4,4-Dimethyl-3-[6-(4-morpholin-4-yl-4-oxo-butyl)-pyridin-3-yl]-5-oxo-2-thioxo-imidazolidin-1-yl}-3-fluoro-2-trifluoromethyl-benzonitrile], the IC50 amounted to 1.2 µM.

Take `CC1(C)C(=O)N(c2ccc(C#N)c(C(F)(F)F)c2)C(=S)N1c1ccc(CCCC(=O)N2CCOCC2)nc1` [Example 56, 4-{4,4-Dimethyl-3-[6-(4-morpholin-4-yl-4-oxo-butyl)-pyridin-3-yl]-5-oxo-2-thioxo-imidazolidin-1-yl}-2-trifluoromethyl-benzonitrile]: the IC50 was 3.64 µM.

Take `CNC(=O)CCCc1ccc(N2C(=S)N(c3ccc(C#N)c(C(F)(F)F)c3F)C(=O)C2(C)C)cn1` [Example 57, 4-{5-[3-(4-Cyano-2-fluoro-3-trifluoromethyl-phenyl)-5,5-dimethyl-4-oxo-2-thioxo-imidazolidin-1-yl]-pyridin-2-yl}-N-methyl-butyramide]: the IC50 was 1.91 µM.

For the molecule `CC1(C)C(=O)N(c2ccc(C#N)c(C(F)(F)F)c2F)C(=S)N1c1ccc(CCCC(=O)N2CCOCC2)c(F)c1` [Example 58, 3-fluoro-4-(3-(3-fluoro-4-(4-morpholino-4-oxobutyl)phenyl)-4,4-dimethyl-5-oxo-2-thioxoimidazolidin-1-yl)-2-(trifluoromethyl)benzonitrile], the IC50 was 0.53 µM.

Turning to `CC1(C)C(=O)N(c2cc(C(F)(F)F)c(C#N)cc2F)C(=S)N1c1ccc(CCCc2ncc[nH]2)c(F)c1` [Example 60, 4-(3-(4-(3-(1H-imidazol-2-yl)propyl)-3-fluorophenyl)-4,4-dimethyl-5-oxo-2-thioxoimidazolidin-1-yl)-5-fluoro-2-(trifluoromethyl)benzonitrile], the IC50 was found to be 3.3 µM.

With `N#Cc1ccc(N2C(=O)C3(CCC3)N(c3ccc(CCCC(=O)N4CC(O)C4)c(F)c3)C2=S)c(F)c1C(F)(F)F` [Example 61, 3-Fluoro-4-(5-{3-fluoro-4-[4-(3-hydroxy-azetidin-1-yl)-4-oxo-butyl]-phenyl}-8-oxo-6-thioxo-5,7-diaza-spiro[3.4]oct-7-yl)-2-trifluoromethyl-benzonitrile], the IC50 amounted to 0.19 µM.

Take `CC1(C)C(=O)N(c2ccc(C#N)c(C(F)(F)F)c2F)C(=S)N1c1ccc(CCCc2ncco2)nc1` [Example 63, 4-{4,4-Dimethyl-3-[6-(3-oxazol-2-yl-propyl)-pyridin-3-yl]-5-oxo-2-thioxo-imidazolidin-1-yl}-3-fluoro-2-trifluoromethyl-benzonitrile]: the IC50 turned out to be 0.1 µM.

As for `CC1(C)C(=O)N(c2ccc(C#N)c(C(F)(F)F)c2)C(=S)N1c1ccc(CCCc2ncco2)nc1` [Example 64, 4-{4,4-Dimethyl-3-[6-(3-oxazol-2-yl-propyl)-pyridin-3-yl]-5-oxo-2-thioxo-imidazolidin-1-yl}-2-trifluoromethyl-benzonitrile], the IC50 stood at 0.45 µM.

The same assay, now with this note: read-out: LNCAP IC50; inhibition of PSA production, LNCaP cells, R1881 1 ng/ml, three days, seven point assay.
Regarding `CC1(C)C(=O)N(c2ccc(C#N)c(Cl)c2F)C(=S)N1c1ccc(CCCC#N)cc1` [Example 59, 2-chloro-4-(3-(4-(3-cyanopropyl)phenyl)-4,4-dimethyl-5-oxo-2-thioxoimidazolidin-1-yl)-3-fluorobenzonitrile], the IC50 is 0.48 µM.
